Among the data in ChEMBL document CHEMBL4033607, “Structurally Diverse Alkaloids from the Seeds of Peganum harmala” (J Nat Prod, 2017) are IC50 values, retold here.

SMILES strings stand for the structures. Bounds are passed on as bounds.

What is called IC50 is the concentration needed to halve the response being measured. A high value points to a need for much substance.

What all share (assay type): functional, cell-based
Test [1] deals with PC-3. Kind of test: Antiproliferative activity against human PC3 cells by MTT assay. On the technique in general: Tetrazolium assays rely on reduction of a dye to a coloured formazan, in cell work by metabolically active cells.
Test [2] relates to SGC-7901. Description: Antiproliferative activity against human SGC7901 cells by MTT assay.
Test [3] relates to HL-60. Description: Antiproliferative activity against human HL60 cells by tryphan blue assay.

For `COc1ccc2c3c([nH]c2c1)-c1nc2ccccc2c(=O)n1CC3`, the IC50 in test [1], in test [2] and in test [3] was > 10 µM throughout.
With `COc1ccc2c3c([nH]c2c1)C(=O)NCC3`, the IC50 in test [1], in test [2] and in test [3] was > 10 µM throughout.
With `COc1cc(Cc2cncs2)cc(OC)c1O`, the IC50 in test [1], in test [2] and in test [3] was > 10 µM in each case.
Turning to `COc1ccc2c3ccnc4cc(C)c(=O)n(c2c1)c43`, the IC50 in test [1], in test [2] and in test [3] was > 10 µM each time.
Turning to `COc1ccc2c3c([nH]c2c1)C(c1cnc2ccccc2c1)=NCC3`, the IC50 in test [1], in test [2] and in test [3] was > 10 µM in each case.
In test [3], `COc1ccc2c(c1)[nH]c1c(CO)nccc12` registered an IC50 of 4.36 µM.
For `CCc1nccc2c1[nH]c1cc(OC)ccc12`, in test [3], the IC50 was found to be 9.05 µM.
`COC(=O)N1CC[C@@]2(O)c3ccc(OC)cc3N(C(=O)OC)[C@@]12C`: the IC50 in test [1], in test [2] and in test [3] was > 10 µM throughout.
For the molecule `COC(=O)N1c2cc(OC)ccc2[C@@]2(O)CCN[C@@]12C`, the IC50 in test [1], in test [2] and in test [3] was > 10 µM throughout.
Consider `COC(=O)/C=C1/c2[nH]c3cc(OC)ccc3c2CCN1C(C)=O`, for which the IC50 in test [1], in test [2] and in test [3] was > 10 µM each time.
Regarding `COc1ccc2c(c1)[nH]c1c(C(N)=O)nccc12`, the IC50 in test [1], in test [2] and in test [3] was > 10 µM throughout.
As for `COc1ccc2c3c([nH]c2c1)C(C)=[N+]([O-])CC3`, the IC50 in test [1], in test [2] and in test [3] was > 10 µM in each case.
Take `COC(=O)N1CC[C@]2(O)c3ccc(OC)cc3N(C(=O)OC)[C@]12C`: the IC50 in test [1], in test [2] and in test [3] was > 10 µM throughout.
As to `COc1ccc2c(c1)[nH]c1c(C)[n+]([O-])ccc12`, the IC50 in test [1], in test [2] and in test [3] was > 10 µM in each case.
Consider `COc1ccc2c3c([nH]c2c1)-c1cc(CO)cc(=O)n1CC3`, for which the IC50 in test [1], in test [2] and in test [3] was > 10 µM throughout.
`COc1ccc2c3c([nH]c2c1)-c1cccc(=O)n1CC3` came in with a 50% inhibitory concentration (IC50) in test [3] of 9.25 µM.
Regarding `COC(=O)N1c2cc(OC)ccc2[C@]2(O)CCN[C@]12C`, the IC50 in test [1], in test [2] and in test [3] was > 10 µM in each case.
Regarding `COc1cc(Cc2cnc(C)s2)cc(OC)c1O`, the IC50 in test [1], in test [2] and in test [3] was > 10 µM in each case.
As to `COc1ccc2c(c1)[nH]c1c(C(C)=O)nccc12` [ARENARINE C], the IC50 in test [1], in test [2] and in test [3] was > 10 µM each time.
As for `COc1ccc2c3c([nH]c2c1)C(C)=NCC3` [HARMALINE], the IC50 in test [1], in test [2] and in test [3] was > 10 µM throughout.
As to `Cc1nccc2c1[nH]c1ccccc12` [HARMAN], the IC50 in test [1], in test [2] and in test [3] was > 10 µM in each case.
On to `COC(=O)c1nccc2c1[nH]c1cc(OC)ccc12` [HARMIC ACID METHYL ESTER], for which the IC50 in test [1], in test [2] and in test [3] was > 10 µM each time.
